Reference: publication PMC9229919, “4-Aminoquinoline-Based Adamantanes as Potential Anticholinesterase Agents in Symptomatic Treatment of Alzheimer’s Disease” (Pharmaceutics, 2022)
Where two headings read alike, the source gives them in different places.

Assays:
[1] = standard compounds of the interpolation method; cited from earlier work
[2] = Reverse-phase thin-layer chromatographic lipophilicity (RF, RM0); type: physicochemical; details: for RM0: intercept of RM = RM0 + bC; for b: slope of RM = RM0 + bC; for RF, Methanol/Water/Hydrochloric acid (conc.), mobile phase I / RF, Dioxane/Water/Hydrochloric acid (conc.), mobile phase II / RF, Methanol/Water/Hydrochloric acid (conc.), mobile phase II / RF, Acetone/Water/Hydrochloric acid (conc.), mobile phase III / RF, Dioxane/Water/Hydrochloric acid (conc.), mobile phase III / RF, Methanol/Water/Hydrochloric acid (conc.), mobile phase III / RF, Dioxane/Water/Hydrochloric acid (conc.), mobile phase IV / RF, Acetone/Water/Hydrochloric acid (conc.), mobile phase IV / RF, Methanol/Water/Hydrochloric acid (conc.), mobile phase IV / RF, Acetone/Water/Hydrochloric acid (conc.), mobile phase IX / RF, Methanol/Water/Hydrochloric acid (conc.), mobile phase IX / RF, Dioxane/Water/Hydrochloric acid (conc.), mobile phase V / RF, Acetone/Water/Hydrochloric acid (conc.), mobile phase V / RF, Methanol/Water/Hydrochloric acid (conc.), mobile phase V / RF, Dioxane/Water/Hydrochloric acid (conc.), mobile phase VI / RF, Acetone/Water/Hydrochloric acid (conc.), mobile phase VI / RF, Methanol/Water/Hydrochloric acid (conc.), mobile phase VI / RF, Acetone/Water/Hydrochloric acid (conc.), mobile phase VII / RF, Methanol/Water/Hydrochloric acid (conc.), mobile phase VII / RF, Acetone/Water/Hydrochloric acid (conc.), mobile phase VIII / RF, Methanol/Water/Hydrochloric acid (conc.), mobile phase VIII: RP-18 silica; for RF, Methanol/Water/Hydrochloric acid (conc.), mobile phase I: I = 90%MeOH/5%H2O/5%HCl; for RF, Dioxane/Water/Hydrochloric acid (conc.), mobile phase II: II = 80%Dioxane/15%H2O/5%HCl; for RF, Methanol/Water/Hydrochloric acid (conc.), mobile phase II: II = 85%MeOH/10%H2O/5%HCl; for RF, Acetone/Water/Hydrochloric acid (conc.), mobile phase III: III = 70%AC/25%H2O/5%HCl; for RF, Dioxane/Water/Hydrochloric acid (conc.), mobile phase III: III = 70%Dioxane/25%H2O/5%HCl; for RF, Methanol/Water/Hydrochloric acid (conc.), mobile phase III: III = 80%MeOH/15%H2O/5%HCl; for RF, Dioxane/Water/Hydrochloric acid (conc.), mobile phase IV: IV = 60%Dioxane/35%H2O/5%HCl; for RF, Acetone/Water/Hydrochloric acid (conc.), mobile phase IV: IV = 65%AC/30%H2O/5%HCl; for RF, Methanol/Water/Hydrochloric acid (conc.), mobile phase IV: IV = 75%MeOH/20%H2O/5%HCl; for RF, Acetone/Water/Hydrochloric acid (conc.), mobile phase IX: IX = 40%AC/55%H2O/5%HCl; for RF, Methanol/Water/Hydrochloric acid (conc.), mobile phase IX: IX = 50%MeOH/45%H2O/5%HCl; for RF, Dioxane/Water/Hydrochloric acid (conc.), mobile phase V: V = 50%Dioxane/45%H2O/5%HCl; for RF, Acetone/Water/Hydrochloric acid (conc.), mobile phase V: V = 60%AC/35%H2O/5%HCl; for RF, Methanol/Water/Hydrochloric acid (conc.), mobile phase V: V = 70%MeOH/25%H2O/5%HCl; for RF, Dioxane/Water/Hydrochloric acid (conc.), mobile phase VI: VI = 40%Dioxane/55%H2O/5%HCl; for RF, Acetone/Water/Hydrochloric acid (conc.), mobile phase VI: VI = 55%AC/40%H2O/5%HCl; for RF, Methanol/Water/Hydrochloric acid (conc.), mobile phase VI: VI = 65%MeOH/30%H2O/5%HCl; for RF, Acetone/Water/Hydrochloric acid (conc.), mobile phase VII: VII = 50%AC/45%H2O/5%HCl; for RF, Methanol/Water/Hydrochloric acid (conc.), mobile phase VII: VII = 60%MeOH/35%H2O/5%HCl; for RF, Acetone/Water/Hydrochloric acid (conc.), mobile phase VIII: VIII = 45%AC/50%H2O/5%HCl; for RF, Methanol/Water/Hydrochloric acid (conc.), mobile phase VIII: VIII = 55%MeOH/40%H2O/5%HCl
Summary of the method: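 Reverse-phase TLC using mobile phases of methanol, acetone or dioxane with water and hydrochloric acid. Methanol varied in 10% steps; development distance 4.5 cm, ambient temperature (22±2 °C). RF measured and RM0 derived from retention.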

purified human BChE = biological target: T1, purified human BChE (Homo sapiens, UniProt P06276); test: biochemical; type: biochemical
T1 construct: possibly also a gift of Dr Florian Nachon (the sentence is ambiguous)
Summary of the method: (§1)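 Modified Ellman assay with acetylthiocholine and DTNB in 0.1 M sodium phosphate pH 7.4 (enzymes diluted with 0.1% BSA), ≤0.2% DMSO, 25 °C. At least three inhibitor concentrations per substrate level; Ki,app from Hunter–Downs equation, Ki from y-intercept and inhibition type from Ki,app vs [S].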

recombinant human AChE = biological target: T2, recombinant human AChE (Homo sapiens, UniProt P22303); test: biochemical; type: biochemical; details: for IS: IS = Ki(BChE)/Ki(AChE), IS > 1 selective to AChE
T2 construct: gift of Dr Florian Nachon (Armed Forces Biomedical Research Institute, Brétigny-sur-Orge, France)
Summary of the method: as §1

[3] = Ferric reducing antioxidant power (FRAP) assay; details: mean ± standard error of three experiments;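 further: expressed as µM Fe2+ equivalents from an FeSO4·7H2O standard curve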
Summary of the method: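 Compounds at 10 and 100 µM were mixed with FRAP reagent (300 mM acetate buffer pH 3.6, TPTZ in HCl, FeCl3, 10:1:1) and incubated 60 min at 37 °C. Fe^2+-TPTZ formation read at 593 nm against a blank. Values derived from an Fe2SO4·7H2O standard curve, three independent experiments.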

[4] = Acetone/Water/Hydrochloric acid (conc.)
[5] = Dioxane/Water/Hydrochloric acid (conc.)
[6] = Methanol/Water/Hydrochloric acid (conc.)
[7] = logarithm of Ki in µM, BChE, dependent variable of the QSAR model, read-out: Y Measured 2 log(ki)Bche, log (Ki/µM BChE) (converted)
[8] = ± standard error, 25 °C, ATCh substrate, read-out: Ki BChE
[9] = log (Ki/µM AChE), read-out: Y Measured 1 log(ki)Ache (converted)
[10] = ± standard error, 25 °C, ATCh substrate, read-out: Ki AChE

T2 sequence (P22303 32-614): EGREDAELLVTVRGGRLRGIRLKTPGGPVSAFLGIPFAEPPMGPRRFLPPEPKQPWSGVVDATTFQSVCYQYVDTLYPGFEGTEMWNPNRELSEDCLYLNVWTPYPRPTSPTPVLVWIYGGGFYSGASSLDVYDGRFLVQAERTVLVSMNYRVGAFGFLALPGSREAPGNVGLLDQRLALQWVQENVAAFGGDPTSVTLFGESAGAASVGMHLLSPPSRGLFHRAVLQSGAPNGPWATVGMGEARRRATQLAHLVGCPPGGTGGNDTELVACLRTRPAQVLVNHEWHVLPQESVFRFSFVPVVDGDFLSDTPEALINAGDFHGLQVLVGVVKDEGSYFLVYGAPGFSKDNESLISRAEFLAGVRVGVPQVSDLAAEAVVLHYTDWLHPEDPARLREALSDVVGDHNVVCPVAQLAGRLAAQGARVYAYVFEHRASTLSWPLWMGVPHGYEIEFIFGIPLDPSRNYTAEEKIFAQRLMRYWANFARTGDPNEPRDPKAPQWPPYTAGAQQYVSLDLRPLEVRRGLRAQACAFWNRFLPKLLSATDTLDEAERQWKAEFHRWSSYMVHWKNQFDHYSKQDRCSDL
T1 sequence (P06276 29-602): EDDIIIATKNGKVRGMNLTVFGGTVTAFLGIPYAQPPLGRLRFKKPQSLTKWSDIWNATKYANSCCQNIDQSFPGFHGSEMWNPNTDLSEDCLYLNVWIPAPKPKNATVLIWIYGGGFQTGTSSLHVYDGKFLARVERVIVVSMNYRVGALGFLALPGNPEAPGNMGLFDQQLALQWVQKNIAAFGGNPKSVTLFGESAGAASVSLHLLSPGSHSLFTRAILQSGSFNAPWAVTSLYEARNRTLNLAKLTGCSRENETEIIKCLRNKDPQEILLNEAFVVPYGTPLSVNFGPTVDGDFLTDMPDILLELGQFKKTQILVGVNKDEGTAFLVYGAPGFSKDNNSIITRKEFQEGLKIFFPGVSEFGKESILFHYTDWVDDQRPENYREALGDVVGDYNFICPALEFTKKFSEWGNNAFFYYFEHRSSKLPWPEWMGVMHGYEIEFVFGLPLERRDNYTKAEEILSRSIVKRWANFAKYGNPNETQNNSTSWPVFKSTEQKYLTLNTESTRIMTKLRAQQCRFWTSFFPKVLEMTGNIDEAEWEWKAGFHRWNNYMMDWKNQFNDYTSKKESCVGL

| SMILES | logP [1] | RM0 [2, 4] | b [2, 4] | RM0 [2, 5] | b [2, 5] | RM0 [2, 6] | b [2, 6] | RF, Methanol/Water/Hydrochloric acid (conc.), mobile phase I [2] | RF, Dioxane/Water/Hydrochloric acid (conc.), mobile phase II [2] | RF, Methanol/Water/Hydrochloric acid (conc.), mobile phase II [2] | RF, Acetone/Water/Hydrochloric acid (conc.), mobile phase III [2] | RF, Dioxane/Water/Hydrochloric acid (conc.), mobile phase III [2] | RF, Methanol/Water/Hydrochloric acid (conc.), mobile phase III [2] | RF, Dioxane/Water/Hydrochloric acid (conc.), mobile phase IV [2] | RF, Acetone/Water/Hydrochloric acid (conc.), mobile phase IV [2] | RF, Methanol/Water/Hydrochloric acid (conc.), mobile phase IV [2] | RF, Acetone/Water/Hydrochloric acid (conc.), mobile phase IX [2] | RF, Methanol/Water/Hydrochloric acid (conc.), mobile phase IX [2] | RF, Dioxane/Water/Hydrochloric acid (conc.), mobile phase V [2] | RF, Acetone/Water/Hydrochloric acid (conc.), mobile phase V [2] | also measured |
| --- | --- | --- | --- | --- | --- | --- | --- | --- | --- | --- | --- | --- | --- | --- | --- | --- | --- | --- | --- | --- | --- |
| O=C1CN=C(c2ccccc2Cl)c2cc([N+](=O)[O-])ccc2N1 [klonazepam] | 2.41 |  |  |  |  |  |  |  |  |  |  |  |  |  |  |  |  |  |  |  | pKa1 [1]: 10.5; pKa2 [1]: 1.5 |
| Oc1ccc(Cl)cc1Cl [2,4-dihlorfenol] |  |  |  |  |  |  |  |  |  |  |  |  |  |  |  |  |  |  |  |  | pKa1 [1]: 7.89 |
| c1ccc2c(c1)ccc1ccccc12 [fenantren] | 4.46 |  |  |  |  |  |  |  |  |  |  |  |  |  |  |  |  |  |  |  |  |
| c1ccc2cc3ccccc3cc2c1 [antracen] | 4.45 |  |  |  |  |  |  |  |  |  |  |  |  |  |  |  |  |  |  |  |  |
| Clc1ccc2c(N3CCN(CC45CC6CC(CC(C6)C4)C5)CC3)ccnc2c1 [Compound 20] |  | 1.432 | 2.592 | 0.3825 | 1.224 | 1.5449 | 2.158 | 0.67 | 0.75 | 0.7 | 0.69 | 0.76 | 0.58 | 0.78 | 0.65 | 0.56 | 0.28 | 0.22 | 0.63 | 0.58 | RF, Methanol/Water/Hydrochloric acid (conc.), mobile phase V [2]: 0.48; RF, Dioxane/Water/Hydrochloric acid (conc.), mobile phase VI [2]: 0.5; RF, Acetone/Water/Hydrochloric acid (conc.), mobile phase VI [2]: 0.51; RF, Methanol/Water/Hydrochloric acid (conc.), mobile phase VI [2]: 0.45; RF, Acetone/Water/Hydrochloric acid (conc.), mobile phase VII [2]: 0.42; RF, Methanol/Water/Hydrochloric acid (conc.), mobile phase VII [2]: 0.38; RF, Acetone/Water/Hydrochloric acid (conc.), mobile phase VIII [2]: 0.35; RF, Methanol/Water/Hydrochloric acid (conc.), mobile phase VIII [2]: 0.31; decrease in BChE inhibition vs compound 5 (purified human BChE): up to 275 times; Ki (purified human BChE; [7]): 25.1 µM; Ki (purified human BChE; [8]): 25 ± 1 µM; IS (recombinant human AChE): 2.7; Ki (recombinant human AChE; [9]): 9.4 µM; Ki (recombinant human AChE; [10]): 9.4 ± 0.4 µM; FRAP ([3]; 10 µM compound): 2.9 ± 1.1 µM; FRAP ([3]; 100 µM compound): 6.3 ± 1.6 µM |
| CC(CCNCC12CC3CC(CC(C3)C1)C2)Nc1ccnc2ccccc12 (stereo not drawn) [Compound 15] |  | 1.742 | 2.801 | 0.8903 | 1.797 | 2.31 | 3.062 | 0.71 | 0.74 | 0.67 | 0.6 | 0.7 | 0.54 | 0.7 | 0.55 | 0.51 | 0.15 | 0.11 | 0.51 | 0.45 | RF, Methanol/Water/Hydrochloric acid (conc.), mobile phase V [2]: 0.45; RF, Dioxane/Water/Hydrochloric acid (conc.), mobile phase VI [2]: 0.35; RF, Acetone/Water/Hydrochloric acid (conc.), mobile phase VI [2]: 0.4; RF, Methanol/Water/Hydrochloric acid (conc.), mobile phase VI [2]: 0.36; RF, Acetone/Water/Hydrochloric acid (conc.), mobile phase VII [2]: 0.35; RF, Methanol/Water/Hydrochloric acid (conc.), mobile phase VII [2]: 0.27; RF, Acetone/Water/Hydrochloric acid (conc.), mobile phase VIII [2]: 0.29; RF, Methanol/Water/Hydrochloric acid (conc.), mobile phase VIII [2]: 0.2; Ki (purified human BChE; [8]): 0.65 ± 0.04 µM; IS (recombinant human AChE): 0.9; Ki (recombinant human AChE; [10]): 0.74 ± 0.03 µM; FRAP ([3]; 10 µM compound): 9.3 ± 2.2 µM; FRAP ([3]; 100 µM compound): 224 ± 21 µM |
| Clc1ccc2c(NCCNCC34CC5CC(CC(C5)C3)C4)ccnc2c1 [Compound 1] |  | 1.738 | 2.883 | 0.8129 | 1.796 | 2.081 | 2.812 | 0.72 | 0.78 | 0.68 | 0.62 | 0.73 | 0.54 | 0.73 | 0.59 | 0.55 | 0.16 | 0.15 | 0.55 | 0.51 | RF, Methanol/Water/Hydrochloric acid (conc.), mobile phase V [2]: 0.48; RF, Dioxane/Water/Hydrochloric acid (conc.), mobile phase VI [2]: 0.4; RF, Acetone/Water/Hydrochloric acid (conc.), mobile phase VI [2]: 0.41; RF, Methanol/Water/Hydrochloric acid (conc.), mobile phase VI [2]: 0.43; RF, Acetone/Water/Hydrochloric acid (conc.), mobile phase VII [2]: 0.36; RF, Methanol/Water/Hydrochloric acid (conc.), mobile phase VII [2]: 0.28; RF, Acetone/Water/Hydrochloric acid (conc.), mobile phase VIII [2]: 0.32; RF, Methanol/Water/Hydrochloric acid (conc.), mobile phase VIII [2]: 0.22; less potent inhibitors of BChE than compounds 3 or 4 (purified human BChE): about 3.2 times; Ki (purified human BChE; [7]): 2.1 µM; Ki (purified human BChE; [8]): 2.1 ± 0.2 µM; IS (recombinant human AChE): 1.8; Ki (recombinant human AChE; [9]): 1.2 µM; Ki (recombinant human AChE; [10]): 1.2 ± 0.1 µM; FRAP ([3]; 10 µM compound): 2.4 ± 1.3 µM; FRAP ([3]; 100 µM compound): 20 ± 4 µM |
| c1ccc2c(c1)Cc1ccccc1-2 [fluoren] | 4.18 |  |  |  |  |  |  |  |  |  |  |  |  |  |  |  |  |  |  |  |  |
| FC(F)(F)c1ccc2c(NCCNCC34CC5CC(CC(C5)C3)C4)ccnc2c1 [Compound 6] |  | 2.0143 | 3.169 | 0.9723 | 1.909 | 2.421 | 3.208 | 0.73 | 0.74 | 0.67 | 0.57 | 0.7 | 0.51 | 0.7 | 0.53 | 0.53 | 0.11 | 0.11 | 0.49 | 0.45 | RF, Methanol/Water/Hydrochloric acid (conc.), mobile phase V [2]: 0.44; RF, Dioxane/Water/Hydrochloric acid (conc.), mobile phase VI [2]: 0.33; RF, Acetone/Water/Hydrochloric acid (conc.), mobile phase VI [2]: 0.36; RF, Methanol/Water/Hydrochloric acid (conc.), mobile phase VI [2]: 0.39; RF, Acetone/Water/Hydrochloric acid (conc.), mobile phase VII [2]: 0.32; RF, Methanol/Water/Hydrochloric acid (conc.), mobile phase VII [2]: 0.23; RF, Acetone/Water/Hydrochloric acid (conc.), mobile phase VIII [2]: 0.24; RF, Methanol/Water/Hydrochloric acid (conc.), mobile phase VIII [2]: 0.18; Ki (purified human BChE; [7]): 3.5 µM; Ki (purified human BChE; [8]): 3.5 ± 0.3 µM; IS (recombinant human AChE): 2.9; Ki (recombinant human AChE; [9]): 1.2 µM; Ki (recombinant human AChE; [10]): 1.2 ± 0.1 µM; FRAP ([3]; 10 µM compound): 4.6 ± 0.8 µM; FRAP ([3]; 100 µM compound): 25 ± 6 µM |
| Oc1cccc2ccccc12 [Compound 1-naftol] |  |  |  |  |  |  |  |  |  |  |  |  |  |  |  |  |  |  |  |  | pKa1 [1]: 9.34 |
